Legend:
[1] = system: Huh7 cells; assay: MTT cell growth assay; type: cell-based; conditions: tomatidine, negative control
Description: (§1) HCC cell cell lines (Hep3B, HepG2, HCC36, PLC/PRF/5 (identified as PLC) and Huh 7) were provided by Chiaho Shih, Tien Ko and Kui Li at UTMB. All cells were cultured in Dulbeco-modified essential medium (DMEM) with 10% FBS and antibiotics. […] In addition, the specific inhibition of hedgehog signaling in HCC cells was achieved by addition of Shh neutralizing antibodies (1 μg/ml in 0.5% FBS DMEM, Car# SC-9024, Santa Cruz Biotechnology, Santa Cruz, Calif.). […] Transient transfection of Gli1 in HCC cells was performed using LipofectAmine according to the manufacturer's recommendation (Plasmid-LipofectAmine=1:2.5). Cells with ectopic expression of Gli1 were subjected to drug treatment and to TUNEL (terminal deoxynucleotidyl transferase-mediated dUTP nick end labeling) assay.
(§2) For cell viability analysis, two methods were used: trypan Blue analysis and MTT assay. Trypan Blue analysis was performed to manufacturer's instruction (Invitrogen, CA). The percentage of trypan blue positive cell (dead cells) were calculated under a microscope and triplicates of samples for each treatment were used in a 96-well format. Twenty microliters of MTT (10 mg/ml in PBS) was added to each well (containing 100 μl cultured medium, 0.5% FBS DMEM). […] Thirty minutes later, absorbance was measured at 570 nm using a microplate reader from Molecular Devices Co., Sunnyvale, Calif. […]

[2] = system: Hep3B cells; assay: TUNNEL (TUNEL) apoptosis assay; type: cell-based; conditions: 2 μM
Description: (§3) TUNEL assay was performed using a kit from Roche Biochemicals according to published procedure (Athar et al., 2004). Briefly, cells were fixed with 4% paraformaldehyde at room temperature for 1 h and permeated with 0.1% Triton X-100, 0.1% sodium citrate (freshly prepared) on ice for 2 min. After washing with PBS, each sample was incubated with 50 μl of TUNEL reaction mixture at 37° C. for 30 min. TUNEL labeled solution (without enzyme) was used as a negative control. TUNEL positive cells were counted under a fluorescent microscope. The counting was repeated three times and the percentage from each counting was calculated.

[3] = system: Hep2G cells; assay: TUNNEL (TUNEL) apoptosis assay; type: cell-based; conditions: 2 μM
Description: as §3

[4] = system: Hep3B cells; assay: real-time PCR of hedgehog target genes Gli1 and PTCH1 after drug treatment; type: cell-based; conditions: 2 μM
Description: as §1

[5] = system: Hep3B cells; assay: Trypan blue cell death assay; type: cell-based; conditions: KAAD-cyclopamine 2 μM
Description: as §1, §2

[6] = system: Huh 7 cells that transiently expressed Gli1; assay: TUNEL assay in cells with ectopic expression of Gli1; type: cell-based; conditions: Huh 7 cells transiently expressing Gli1 under CMV promoter
Description: as §3

[7] = system: Huh7 cells; assay: BrdU incorporation; type: cell-based
[8] = system: GI cancer cells; conditions: GI cancer cells (Ma et al., 2006); cited from earlier work
[9] = system: cells regardless of hedgehog signaling; assay: toxicity of KAAD-cyclopamine to cells regardless of hedgehog signaling; type: cell-based; conditions: 5 or 10 μM
[10] = system: liver cancer cells with activated hedgehog signaling pathway; assay: induction of apoptosis in liver cancer cells; type: cell-based; conditions: 2 μM KAAD-cyclopamine
Description: as §3

[11] = system: Huh7-2-3(+) cells; assay: real-time PCR of Gli1 in HCV replicating cells after interferon; type: cell-based; conditions: Huh7-2-3(+) cells treated with interferon (giving Huh7-2-3(−) cells)
Text: The activation of hedgehog signaling pathway in hepatocellular carcinoma infected with virus or bacteria was also examined. Huh7 cells are hepatocellular carcinoma cells that can support HCV replication (Scholle F. et al., 2004. Huh7-2-3(+) are Huh7 cells that allow active HCV replication and Huh7-2-3(−) cells are derived from Huh7-2-3(+) cells following interferon treatment for two weeks to prevent virus replication. SIIA are gastric cancer cells with hedgehog signaling activation and used as control.

[12] = system: Shh promoter; assay: sonic hedgehog promoter activity (luciferase reporter) in HCV expressing cells; type: cell-based; conditions: Huh7 cells with stable expression of HCV; HCV RNA replication inhibited by interferon treatment
Text: Furthermore, the present invention also examined whether HCV RNA replication was a major trigger for activated hedgehog signaling in Hepatocellular carcinoma. In order to do so, cell lines with or without HCV RNA replication for the sonic hedgehog (shh) promoter activity were compared. The promoter activity of SHH was higher in Huh7 cells than in HepG2 cells. […] However, the shh promoter activity was reduced when the HCV RNA replication was inhibited by interferon treatment as shown in 2-3c (FIG. 7B).

| Compound | cell growth (MTT assay) [1] | apoptosis (TUNNEL assay) [2] | apoptosis (TUNNEL assay) [3] | levels of Gli1 and PTCH1 transcripts [4] | level of cell death (Trypan blue) [5] | TUNEL / sensitivity to treatment [6] | BrdU incorporation [7] | concentration that could cause non-specific toxicity [8] [µM] | toxicity to cells [9] | time within which apoptosis is induced [10] [h] | expression of Gli1 [11] | shh promoter activity [12] |
| --- | --- | --- | --- | --- | --- | --- | --- | --- | --- | --- | --- | --- |
| C[C@H]1CC[C@]2(NC1)O[C@H]1C[C@H]3[C@@H]4CC[C@H]5C[C@@H](O)CC[C@]5(C)[C@H]4CC[C@]3(C)[C@H]1[C@@H]2C [tomatidine] | did not affect cell growth | did not induce apoptosis | did not induce apoptosis | little discemible effect |  |  |  |  |  |  |  |  |
| KAAD-cyclopamine |  | apoptosis | no detectable apoptosis |  | increased level of cell death | negative for TUNEL | reduced | 10 | quite toxic | ≤ 12 |  |  |
| interferon |  |  |  |  |  |  |  |  |  |  | reduced | reduced |

Source: patent US20070059311A1, “Regulation of the hedgehog signaling pathway and uses thereof” (priority 2005, published 2007)
